Test results: US20180125795A1, “[…] COMPOSITIONS AND METHODS” (ThermoLife International, LLC, priority 2017, published 2018)

Tested on: human subject
Assay: Post-exercise recovery (whole-body oxygen consumption)
Format: in vivo
Protocol: The administration of cinnamaldehyde promotes post-exercise recovery by reducing the time for a subject's oxygen consumption level (VO2) to return to his or her pre-exercise level when cinnamaldehyde is administered after exercise. In these implementations, cinnamaldehyde is administered with a protein and/or a carbohydrate. The protein may be any protein commonly used in nutritional supplement manufacture, which includes but is not limited to whey protein, milk protein, casein protein, beef protein, soy protein, hemp protein, rice protein, canola protein, spirulina, and pea protein. The carbohydrate may by any commonly used form of simple or complex carbohydrates used in the manufacture of dietary supplements, which includes but is not limited glucose, fructose, dextrose, palatinose, maltodextrin, various starches, activated barley, waxy maize, cereals, and oats. In a preferred embodiment, cinnamaldehyde is administered to the human subject within two hours of completion of exercise, for example within 90 minutes, 60 minutes, or 30 minutes of completion of exercise.
The effect of cinnamaldehyde on promoting post-exercise exercise is best when cinnamaldehyde is administered within an hour after exercise and its effect is reduced when administered two hours after exercise. The effect of cinnamaldehyde on promoting post-exercise exercise is enhanced when it is administered with a protein and/or a carbohydrate (for example, a combination of whey powder and glucose).

O=CC=Cc1ccccc1 [cinnamaldehyde]
time for whole-body oxygen consumption to return to pre-exercise levels (administered after the human subject completed an exercise session): reduced the time
effect on promoting post-exercise recovery (administered two hours after exercise): reduced
effect on promoting post-exercise recovery (administered with a protein and/or a carbohydrate (e.g. whey powder and glucose)): enhanced
effect on promoting post-exercise recovery (administered within an hour after exercise): best
